These results are taken from patent US20250312409A1, “METHODS OF TREATING DILATED CARDIOMYOPATHY AND HEART FAILURE” (ARIZONA BOARD OF REGENTS ON BEHALF OF THE UNIVERSITY OF …, priority 2022, published 2025).

Values joined by “and” are separate entries in the source; they are usually repeats but may differ in a detail not shown here. Equal values may be shown once. Non-standard residues stand in square brackets, D forms with d. Residues, ends and D or L forms follow the SMILES beside them. *: point of attachment. dPhe(4-NHCONH2) = NC(=O)Nc1ccc(C[C@@H](N)C(=O)O)cc1; Dihydroorotyl(S) = O=C1C[C@@H](C(=O)*)NC(=O)N1; dPhe(4-Cl) = N[C@H](Cc1ccc(Cl)cc1)C(=O)O; Phe(4-NH2) = Nc1ccc(C[C@H](N)C(=O)O)cc1; d2Nal = N[C@H](Cc1ccc2ccccc2c1)C(=O)O; Lys(iPr) = CC(C)NCCCC[C@H](N)C(=O)O; d3Pal = N[C@H](Cc1cccnc1)C(=O)O

Data set [1] relates to male and female mice with DCM and WT littermates. The following applies: mouse, in vivo.
The next data set deals with male WT mice (C57BL/6J). Put plainly: Degarelix treatment of WT control mice (EF, plasma ANP and cGMP). The class given is in vivo, mouse. The following applies: male WT vs untreated WT group. As to the method:
(§1) Treatment was initiated at 4 weeks of age when mice were at risk for DCM. The EF was analyzed at 20 weeks when DCM untreated mice progressed to Stage D HF. […] This treatment also elevated EF in males WT vs. untreated WT group (Mann-Whitney test: P<0.01).

The subject of a further data set is humans and mice. The following applies: cited from earlier work.
Data set [2] has as its system male DCM mice. Put plainly: Plasma biomarkers (ELISA) in degarelix-treated DCM mice. Format: in vivo, mouse. The following applies: 20 weeks of age. As to the method: Ejection fraction (EF, %) (FIG. 4A), heart-to-body weight ratios, HW/BW (FIG. 4B), lung-to-body weight ratios, LW/BW, (FIG. 4C) and pleural effusion, (FIG. 4D) were analyzed in male mice with DCM and WT control mice (C57BL/6J) at 20 weeks of age corresponding to Stage D HF in non-treated DCM mice. Groups: Normal non-T-treated DCM mice (black, left bar); Low T ( 20%) DCM mice treated with degarelix, 15 mg/kg subcutaneous injection every 4 weeks (blue, right bar). Dotted line: Levels in WT congenic group (n=8). T plasma level analyzed by ELISA. Data (FIG. 4A-4C) analyzed by One-way-ANOVA with Tukey's multiple comparison test and represent mean t SEM. (FIG. 4D) analyzed by Fisher exact test. […] Groups: at 20 weeks of age=Stage D HF in non-castrated DCM mice. Normal T (100%) non-treated DCM mice (black, left bar); Low T ( 17%) castrated or degarelix-treated DCM mice (blue, right bar); Dotted line: Levels in WT congenic group (n=6-8). T plasma level analyzed by ELISA. Data analyzed by One-way-ANOVA with Tukey's multiple comparison test and represented as mean f SEM; +++P<0.001 in DCM vs. WT group; ****P<0.0001 in castrated vs non-castrated DCM groups. […] Plasma biomarkers levels were analyzed in littermate mice with and without DCM. […] Groups: Normal T, non-treated DCM mice (black, left bar); Low T ( 20%), DCM mice treated with degarelix, 15 mg/kg subcutaneous injection every 4 weeks (blue, right bar). Dotted line: level in WT congenic group (n=6). T plasma level analyzed by ELISA. Data analyzed by One-way-ANOVA with Tukey's multiple comparison test and represent mean t SEM; *=between DCM groups: **P<0.01; DCM groups vs. WT group: ++++P<0.0001; +++P<0.001.

The subject of data set [3] is male DCM mice. The experiment in a line: Degarelix treatment in progressive DCM mouse model: cardiac function, remodeling, edema, HF. The class given is in vivo. As to the method: Ejection fraction (EF, %) (FIG. 4A), heart-to-body weight ratios, HW/BW (FIG. 4B), lung-to-body weight ratios, LW/BW, (FIG. 4C) and pleural effusion, (FIG. 4D) were analyzed in male mice with DCM and WT control mice (C57BL/6J) at 20 weeks of age corresponding to Stage D HF in non-treated DCM mice. Groups: Normal non-T-treated DCM mice (black, left bar); Low T (˜20%) DCM mice treated with degarelix, 15 mg/kg subcutaneous injection every 4 weeks (blue, right bar). Dotted line: Levels in WT congenic group (n=8). T plasma level analyzed by ELISA. Data (FIG. 4A-4C) analyzed by One-way-ANOVA with Tukey's multiple comparison test and represent mean t SEM. (FIG. 4D) analyzed by Fisher exact test.
To gain translational insights relevant to human DCM-HF, inventors analyzed the outcome of T-lowering therapy in a well-established mouse progressive DCM model on C57BL/6J strain with defined age-related HF stages (time points) for evaluation of systolic function, edema, blood sample collections, etc., in studies of male and female DCM mice. This animal model is normotensive and without kidney dysfunction, and arrhythmia, which excludes variables of blood pressure, arrhythmias, and kidney dysfunction.
as §1

The test system of another data set is castrated male DCM mice. The experiment in a line: Partial restoration of T (implanted pellets) in castrated DCM mice. The class given is in vivo, mouse. As to the method:
Ejection fraction (EF, %) was analyzed in littermate DCM male mice (on C57BL/6J background) at 20 weeks of age corresponding to Stage D heart failure (HF) in non-castrated DCM mice. […] Dotted line: level in WT congenic group (n=8). T plasma levels analyzed by ELISA. Data analyzed by One-way-ANOVA with Tukey's multiple comparison test and represent mean+/−SEM; *=between DCM groups; **P<0.001; +=DCM groups vs. WT group: ++++P<0.0001.
FIGS. 2A-2B show lowering testosterone (T) levels increases cGMP levels in plasma (FIG. 2A) and cytosol fraction of cardiac LV extract (FIG. 2B) of male DCM mice. cGMP was analyzed in littermate mice by ELISA; data were normalized to 100 ug of total protein in extracts. Groups: at 20 weeks of age=Stage D heart failure (HF) in non-castrated DCM mice. […] Dotted line: level in WT congenic group (n=8). T plasma levels analyzed by ELISA. Data analyzed by One-way-ANOVA with Tukey's multiple comparison test and represent mean+/−SEM; *=between DCM groups; **P<0.001; +=DCM groups vs. WT group: ++++P<0.0001.
Referring to FIG. 1, T suppression in male DCM mice (low level) by surgical castration (initiated at HF stage A) improves systolic dysfunction vs. non-castrated DCM group (normal level).

For `CC(=O)N[C@H](Cc1ccc2ccccc2c1)C(=O)N[C@H](Cc1ccc(Cl)cc1)C(=O)N[C@H](Cc1cccnc1)C(=O)N[C@@H](CO)C(=O)N[C@@H](Cc1ccc(NC(=O)[C@@H]2CC(=O)NC(=O)N2)cc1)C(=O)N[C@H](Cc1ccc(NC(N)=O)cc1)C(=O)N[C@@H](CC(C)C)C(=O)N[C@@H](CCCCNC(C)C)C(=O)N1CCC[C@H]1C(=O)N[C@H](C)C(N)=O` [degarelix] (Ac-[d2Nal][dPhe(4-Cl)][d3Pal]S[Phe(4-NH2)](Dihydroorotyl(S))[dPhe(4-NHCONH2)]L[Lys(iPr)]P[dA]-NH2), in data set [1], the body weights result is “did not influence” and the motor function result is on record as “did not influence”. The “Ejection fraction (EF)” value in the data set with male WT mice (C57BL/6J) (Mann-Whitney P<0.01) is given as “elevated EF”. Also, in the data set on male WT mice (C57BL/6J) (P<0.001 Mann-Whitney), the “plasma ANP levels” value is “elevated ANP and cGMP plasma levels”; the “plasma cGMP levels” value is “elevated ANP and cGMP plasma levels”. The “circulating T levels” value in the data set on humans and mice (humans and mice, reversible, without T surge and clinical side effects) is on record as “to surgical castration level”. For the same compound, the muscle mass result with humans and mice (in vivo) is reported as “does not affect muscle mass”. For the same compound, the plasma norepinephrine levels entry with male DCM mice [2] (FIG. 5A) was “lowering norepinephrine plasma levels”. In addition, the “plasma renin activity (PRA) levels” value with male DCM mice [2] (FIG. 5C) was “normalization of PRA levels”. Further, in the data set on male DCM mice [2] (FIG. 5E), the “pro-renin receptor ((P)RR) levels” value is reported as “normalization of (P)RR levels”. In addition, the “total renin levels in circulation” value in the data set on male DCM mice [2] (FIG. 5F) is reported as “did not affect total renin levels”. In the data set on male DCM mice [2] (degarelix 15 mg/kg s.c. every 4 weeks, FIG. 6A), the “plasma ANP levels (analyzed as NT-ANP)” value is given as “increases plasma levels of ANP”. The “plasma cGMP levels” value in the data set with male DCM mice [2] (degarelix 15 mg/kg s.c. every 4 weeks, FIG. 6B) is “increases plasma levels”. Besides, the “T plasma level (relative to Normal T, 100%)” value in the data set with male DCM mice [2] (degarelix 15 mg/kg subcutaneous every 4 weeks, ELISA) was ~20% and ~17%. For the same compound, the “heart failure (HF)” value in the data set on male DCM mice [3] (20 weeks of age) is “attenuates HF”. Also, in the data set with male DCM mice [3] (20 weeks of age, FIG. 4B, P<0.001), the “heart-to-body weight ratio, HW/BW” value is on record as “reduces pathologically elevated heart”. In addition, the “lung-to-body weight ratio, LW/BW (pulmonary edema)” value in the data set with male DCM mice [3] (20 weeks of age, FIG. 4C, P<0.01) is recorded as “reduced pulmonary edema”. Also, the pleural effusion result in the data set with male DCM mice [3] (20 weeks of age, FIG. 4D, P<0.05, Fisher exact test) is “reduction”. In the data set with male DCM mice [3] (treatment from 4 weeks of age, analyzed at 20 weeks (Stage D HF in untreated), vs untreated DCM, FIG. 4A), the “Ejection fraction (EF)” value is listed as “significantly improved EF”.

`C[C@]12CC[C@H]3[C@@H](CCC4=CC(=O)CC[C@@]43C)[C@@H]1CC[C@@H]2O` [T, testosterone]: in the data set with castrated male DCM mice (Reduced T vs Low T castrated DCM mice, FIG. 2A), the “cGMP levels in plasma” value is listed as “lowered cGMP levels”. Moreover, in the data set on castrated male DCM mice (Reduced T vs Low T castrated DCM mice, FIG. 2B), the “cGMP levels in cardiac LV tissue” value is recorded as “lowered cGMP levels”. Also, the “T plasma level (relative to Normal T, 100%)” value with castrated male DCM mice (castrated DCM mice with partially restored T, 20 weeks of age, ELISA) is on record as about 60%. Further, the “Ejection fraction (EF)” value with castrated male DCM mice (castrated DCM mice, implanted pellets for 3 months, vs castrated (Low T), FIG. 1) is reported as “trend toward reduced EF”.
